From ChEMBL document CHEMBL1143132, “Synthesis and protective effects of coumarin derivatives against oxidative stress induced by doxorubicin” (2008) come the findings set out here.

The subject of test [1] is MCF7. As to the kind of experiment: Protective effect against doxorubicin-induced oxidative stress in human MCF7 cells assessed as reduction of ROS level at 25 uM. Format: functional, cell-based.
For test [2], the system named is MCF7. Nature of the test: Antioxidant activity in human MCF7 cells assessed as reduction of H2O2 production at 100 uM. Format: functional, cell-based.
Test [3] deals with MCF7. Nature of the test: Cytotoxicity against human MCF7 cells at 100 uM. Format: functional.

Each structure is given as a SMILES string. Active and inactive are the calls of the source. No cut-off for these calls is given here.

For the compound `Cc1cc(=O)oc2c(O)c(O)ccc12`, the outcome in test [1] and in test [2] was Active.
Regarding `Cc1c(Cl)c(=O)oc2c(O)c(O)ccc12`, in test [2], the result was Active.
As to `CCCCCCCCCCCCSCc1cc(=O)oc2c(OC(C)=O)c(OC(C)=O)ccc12`, the result in test [2] was Active. Also, in test [3], the Activity was determined as 70%.
